The test is described as follows: Antioxidant activity assessed as hydroxyl radical scavenging activity incubated for 60 mins in water bath by Fenton reaction-based method. The class given is functional.

Our source for the IC50 values is ChEMBL document CHEMBL4680275, “From Seeds of Apium graveolens Linn. to a Cerebral Ischemia Medicine: The Long Journey of 3-n-Butylphthalide” (J Med Chem, 2020).

On to `CCCCC1OC(=O)c2cc(N3N=C(C)CC3=O)ccc21` (racemic), for which the half-inhibitory concentration (IC50) was 2.87 mM.

Take `CC1=NN(c2ccccc2)C(=O)C1` [EDARAVONE]: the 50% inhibitory concentration (IC50) stood at 3.57 mM.
